Data on 1 compound can be found in patent US20160376263A1, “BITTER TASTE MODIFIERS INCLUDING SUBSTITUTED 1-BENZYL-3-(1-(ISOXAZOL-4-YLMETHYL)-1H-PYRAZOL-4-YL)IMIDAZOLIDINE-2,4-DIONES AND COMPOSITIONS THEREOF” (SENOMYX, INC., priority 2016, published 2016).

In data set [1] the target is T1, hT2R8 bitter receptor (Homo sapiens, UniProt Q9NYW2).
T1 sequence (Q9NYW2 1-309): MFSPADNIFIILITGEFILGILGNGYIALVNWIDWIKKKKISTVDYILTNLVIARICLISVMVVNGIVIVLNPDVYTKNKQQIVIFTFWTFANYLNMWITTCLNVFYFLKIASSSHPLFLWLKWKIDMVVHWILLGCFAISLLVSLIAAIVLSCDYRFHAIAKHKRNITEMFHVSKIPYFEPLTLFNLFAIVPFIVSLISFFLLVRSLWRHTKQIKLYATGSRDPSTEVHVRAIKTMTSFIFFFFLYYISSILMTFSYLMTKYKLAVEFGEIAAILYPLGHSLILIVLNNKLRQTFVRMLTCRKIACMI
The data set can be described thus: hT2R8 bitter receptor inhibition. In kind it is cell-based. Particulars: read-out: IC50, inhibition of hT2R08 bitter receptor.

Usually IC50 stands for the midpoint of a concentration-inhibition curve. Usually melting point stands for the temperature, or range, at which the solid turns liquid.

`Cc1noc(C)c1Cn1cc(N2C(=O)N(Cc3cc(O)cc(O)c3)C(C)(C)C2=O)cn1` [Example 105] showed a melting point of 213 to 215 °C. Besides, in data set [1], the half-inhibitory concentration (IC50) was found to be 10 nM.
